In US20120245029A1, “NOVEL PHOSPH(ON)ATE- AND SULF(ON)ATE-BASED PHOSPHATE MODIFIED NUCLEOSIDES USEFUL AS SUBSTRATES FOR POLYMERASES AND AS ANTIVIRAL AGENTS” (priority 2009, published 2012):

Legend:
HIV-1 RT [1] = target: T1, HIV-1 RT (Human immunodeficiency virus type 1 group M subtype B, UniProt P04585); assay: Elongation of primer P1 directed by template T2 by HIV-1 RT; format: biochemical; conditions: for % product P + 1 / % product P + 2 / % product P + 3 / % product P + 4 / % product P + 5 / % product P + 6 / % product P + 7: 120 minutes reaction, P1T2, percentage of the total amount of radio-nucleotides
T1 construct: HIV-1 Reverse Transcriptase serves, in the HIV-1 viral replication process, as catalyst; purchased Ambion
Protocol: (§1) DNA polymerase reactions: end-labeled primer was annealed to its template by combining primer and template in a molar ratio of 1:2 and heating the mixture to 70° C. for 10 minutes followed by slow cooling to room temperature over a period of 1.5 hour. For the incorporation of a modified nucleoside, a series of 20 μL-batch reactions was performed with the enzyme HIV-1 RT (Ambion, 10 U/μL stock soln, specific activity 8.095 Wring, concentration 1.2 mg/mL). The final mixture contained 125 nM primer template complex, RT buffer (250 mM Tris.HCl, 250 mM KCl, 50 mM MgCl2, 2.5 mM spermidine, 50 mM dithiothreitol (DTT); pH 8.3), 0.025 U/μL HIV-1 RT, and different concentrations of the phosphoramidate to be tested (1 mM, 500 μM, 200 μM and 100 μM).
(§2) Electrophoresis: all polymerase reaction aliquots (2.5 μL) were quenched by the addition of 10 μL of loading buffer (90% formamide, 0.05% bromophenol blue, 0.05% xylene cyanol and 50 mM ethylenediaminetetraacetic acid (EDTA)). Samples were heated at 85° C. for 5 minutes prior to analysis by electrophoresis for 2.5 hours at 2000 V on a 30 cm×40 cm×0.4 mm 20% (19:1 mono:bis) denaturing gel in the presence of a 100 mM Tris-borate, 2.5 mM EDTA buffer; pH 8.3. Products were visualized by phosphorimaging. The amount of radioactivity in the bands corresponding to the products of enzymatic reactions was determined by using the imaging device Cyclone@ and the Optiquant image analysis software (Perkin Elmer).
In order to further investigate the potentiality of the leaving groups of this invention, L-Cys-dAMP (2) and 3-phosphono-L-Ala-dAMP (3) were tested in the template dependent incorporation of more than one phosphoramidate nucleotides by HIV-1 RT (FIG. 4). For this purpose, Primer P1 and template T2 containing an overhang of seven thymidine residues and four nucleobases (GGAC) at the 3′-end were used.
In order to investigate the strand elongation capacity of compound 2, a template dependent incorporation of more than one nucleotide experiment was carried out. In this experiment HIV-1 RT and P1T2 duplex, where seven thymidine bases overhang of the template is flanked by four non-thymidine units at the 3′-end were used. A range of concentration of the building block was incubated with the primer-template complex and 0.025 U/μL of enzyme at the appropriate temperature, samples were quenched after 15, 30, 60, 90 and 120 minutes respectively and analyzed by 20% polyacrylamide gel electrophoresis.

HIV-1 RT [2] = target: T1, HIV-1 RT; assay: Gel-based single nucleotide incorporation assay by HIV-1 RT (primer-template P1T1); format: biochemical; conditions: for conversion within 60 minutes: P1T1; for % of P + 1: P1T1 125 nM
Protocol: as §1, §2
Here, the ability of phosphoramidate analogues as substrate for HIV-1 RT was investigated by the gel-based single nucleotide incorporation assay. The natural nucleoside triphosphate (dATP) was used as reference.
The ability of HIV-1 reverse transcriptase to incorporate phosphoramidate analogues 2-6 was analysed by gel-based single-nucleotide-incorporation assays using the primer-template complex P1T1.

HIV-1 RT [3] = target: T1, HIV-1 RT; conditions: previous experiments / already known; cited from earlier work
HIV-1 RT [4] = target: T1, HIV-1 RT; assay: Gel-based single nucleotide incorporation assay by HIV-1 RT (primer-template P1T1); format: biochemical; conditions: among phosphoramidate analogues 1-5
HIV-1 RT [5] = target: T1, HIV-1 RT; assay: Steady-state kinetics of single nucleotide incorporation by HIV-1 RT; format: biochemical; conditions: P1T1 125 nM, HIV-1 RT 0.025 U/μL, 37° C.
Protocol: The efficiency of incorporation by HIV-1 RT of 3-phosphono-L-Ala-dAMP (3) was investigated by determination of the kinetic parameters Km and Vmax. The steady-state kinetics assay was carried out as follows. The reaction was started by adding HIV-1 RT to P1-T1 complex, buffer, 3-phosphono-L-Ala-dAMP (3) and dATP. The final mixture (20 μL) contained 0.025 U/μL HIV-1 RT, buffer, 125 nM primer-template complex, and various concentrations 3-phosphono-L-Ala-dAMP and dATP. The range of concentrations for phosphoamidates was optimized according to a Km value for the incorporation of an individual nucleotide. In the case of HIV-1 RT, reaction mixtures containing the enzyme in concentration (0.025 U/μL) to attain 5-25% conversion and appropriate substrate concentration (0.5-100 μM used for 3-phosphono-L-Ala-dAMP (3) and 0.1-10 μM used for dATP) were incubated at 37° C. and run for 8-10 different time intervals (2-20 minutes). The incorporation velocities were calculated based on the percentage of single-nucleotide extension product (P+1 band). The kinetic parameters (Vmax and Km) were determined by plotting V (nM/min) versus substrate concentration (μM) and fitting the data point to a nonlinear Michaelis-Menten regression using GraphPad Prism software.

Structure (SMILES)	% product P + 1 (HIV-1 RT [1]) [%]	% product P + 2 (HIV-1 RT [1]) [%]	% product P + 3 (HIV-1 RT [1]) [%]	% product P + 4 (HIV-1 RT [1])	% product P + 5 (HIV-1 RT [1]) [%]	% product P + 6 (HIV-1 RT [1]) [%]	% product P + 7 (HIV-1 RT [1]) [%]	conversion within 60 minutes (HIV-1 RT [2]; 500 μM substrate, 60 min) [%]	% of P + 1 (HIV-1 RT [2]; 100 μM substrate, 10 min) [%]	% of P + 1 (HIV-1 RT [2]; 100 μM substrate, 20 min) [%]	% of P + 1 (HIV-1 RT [2]; 100 μM substrate, 30 min) [%]	% of P + 1 (HIV-1 RT [2]; 100 μM substrate, 60 min) [%]	% of P + 1 (HIV-1 RT [2]; 100 μM substrate, 120 min) [%]	% of P + 1 (HIV-1 RT [2]; 200 μM substrate, 10 min) [%]	% of P + 1 (HIV-1 RT [2]; 200 μM substrate, 20 min) [%]	% of P + 1 (HIV-1 RT [2]; 200 μM substrate, 30 min) [%]	% of P + 1 (HIV-1 RT [2]; 200 μM substrate, 60 min) [%]	% of P + 1 (HIV-1 RT [2]; 200 μM substrate, 120 min) [%]	% of P + 1 (HIV-1 RT [2]; 1 mM substrate, 60 min) [%]	also measured
Nc1ncnc2c1ncn2[C@H]1C[C@H](O)[C@@H](COP(=O)(O)N(CP(=O)(O)O)CP(=O)(O)O)O1 [Compound 6, 2′-deoxyadenosine-5′-[iminobis(methanephosphonate)] phosphoramidate]	8.6	53.1	10.8	traces	0	0	0	90	–	–	–	–	–	–	–	–	–	–	–	–
Nc1ncnc2c1ncn2[C@H]1C[C@H](O)[C@@H](COP(=O)(O)N[C@@H](CO)C(=O)O)O1 [Ser-dAMP]	–	–	–	–	–	–	–	–	–	–	–	–	–	–	–	–	–	–	–	substrate / leaving group quality for the polymerase (in words), already known (HIV-1 RT [3]): poor substrate
Nc1ncnc2c1ncn2[C@H]1CC(O)[C@@H](COP(=O)(O)N(CC(=O)O)CP(=O)(O)O)O1 (stereo partly shown) [Compound 8]	11.8	37.7	7.9	traces	1.2	0.6	1.2	70.8	–	–	–	–	–	–	–	–	–	–	–	–
Nc1ncnc2c1ncn2[C@H]1C[C@H](O)[C@@H](COP(=O)(O)N[C@@H](COP(=O)(O)O)C(=O)O)O1 [Compound 5, 2′-Deoxyadenosine-5′-(O-phospho-L-serine) phosphoramidate]	–	–	–	–	–	–	–	–	3.1	3.2	4.6	5.1	5.2	3.7	4.6	5.8	6.6	9.5	19.4	substrate quality for HIV-1 RT (in words) (HIV-1 RT [4]): much less good substrates
Nc1ncnc2c1ncn2[C@H]1C[C@H](O)[C@@H](COP(=O)(O)N[C@@H](CS(=O)(=O)O)C(=O)O)O1 [Compound 2, 2′-Deoxyadenosine-5′-(L-cysteic acid) phosphoramidate]	–	–	–	–	–	–	–	–	7.7	7.9	8.5	9.3	9.1	13.7	15.6	16.0	15.8	18.1	63.1	primer extension products (in words) (HIV-1 RT [1]; P1T2, gel electrophoresis): only extended a primer with one and two adenine nucleobases; % of P + 1 (HIV-1 RT [2]; 500 μM substrate, 10 min): 27.7%; % of P + 1 (HIV-1 RT [2]; 500 μM substrate, 20 min): 29.6%; % of P + 1 (HIV-1 RT [2]; 500 μM substrate, 30 min): 38.3%; % of P + 1 (HIV-1 RT [2]; 500 μM substrate, 60 min): 38.4%; % of P + 1 (HIV-1 RT [2]; 500 μM substrate, 120 min): 41.5%
Nc1ncnc2c1ncn2C1CC(O)C(COP(=O)(O)NC(CC(=O)O)C(=O)O)O1 [L-aspartic acid phosphoramidate of dAMP]	–	–	–	–	–	–	–	–	–	–	–	–	–	–	–	–	–	–	–	substrate / leaving group quality for the polymerase (in words), already known (HIV-1 RT [3]): acceptable leaving group
Nc1ncnc2c1ncn2[C@H]1C[C@H](O)[C@@H](COP(=O)(O)NCCS(=O)(=O)O)O1 [Compound 1, 2′-deoxyadenosine-5′-taurine phosphoramidate]	–	–	–	–	–	–	–	–	3.5	4.0	4.8	6.3	7.2	3.1	5.7	4.6	5.1	4.3	54.7	% of P + 1 (HIV-1 RT [2]; 500 μM substrate, 10 min): 12.8%; % of P + 1 (HIV-1 RT [2]; 500 μM substrate, 20 min): 16.6%; % of P + 1 (HIV-1 RT [2]; 500 μM substrate, 30 min): 19.8%; % of P + 1 (HIV-1 RT [2]; 500 μM substrate, 60 min): 20.1%; % of P + 1 (HIV-1 RT [2]; 500 μM substrate, 120 min): 20.2%; % of P + 1 (HIV-1 RT [2]; 1 mM substrate, 10 min): 26.6%; % of P + 1 (HIV-1 RT [2]; 1 mM substrate, 20 min): 41.0%; % of P + 1 (HIV-1 RT [2]; 1 mM substrate, 30 min): 55.1%; % of P + 1 (HIV-1 RT [2]; 1 mM substrate, 120 min): 55.7%
Nc1ncnc2c1ncn2[C@H]1C[C@H](O)[C@@H](COP(=O)(O)OP(=O)(O)OP(=O)(O)O)O1 [dATP, reference compound]	–	–	–	–	–	–	–	–	–	–	–	–	–	–	–	–	–	–	–	Km (HIV-1 RT [5]): 930 ± 260 nM; Vmax (HIV-1 RT [5]): 32.27 ± 2.32 nM/min
Nc1ncnc2c1ncn2[C@H]1C[C@H](O)[C@@H](COP(=O)(O)N(CCP(=O)(O)O)CCP(=O)(O)O)O1 [Compound 7, 2′-deoxyadenosine-5′-[iminobis(ethyl phosphonate)] phosphoramidate]	15.2	35.4	4.9	traces	0	0	0	83.2	–	–	–	–	–	–	–	–	–	–	–	–
Nc1ncnc2c1ncn2[C@H]1C[C@H](O)[C@@H](COP(=O)(O)N[C@@H](COS(=O)(=O)O)C(=O)O)O1 [Compound 4, 2′-Deoxyadenosine-5′-(O-sulfonato-L-serine) phosphoramidate]	–	–	–	–	–	–	–	–	–	–	–	–	–	–	–	–	–	–	8.1	substrate quality for HIV-1 RT (in words) (HIV-1 RT [4]): much less good substrates
